# Results as given in US20240000872A1, “NOVEL BACTERIOPHAGE THAT LYSES ACINETOBACTER GENUS BACTERIA HAVING RESISTANCE TO ANTIBIOTICS” (priority 2020, published 2024).
# System: Acinetobacter baumannii strains
# Test: Antibiotic susceptibility test (CLSI disk diffusion test method, read per CLSI 2016)
# Assay type: cell-based
# Protocol: Strain identification was performed using a kit such as AT 32 GN system (bioMérieux, Marcy l'Etoile, France). […] In Table 2 below, S, I, and R are the results obtained by evaluating susceptibility to the antibacterial agents, in which ‘S’ means susceptible, ‘I’ means intermediate, and ‘R’ means resistant.
# Strain identification was performed using a kit such as ATB 32 GN system (bioMédrieux, Marcy l'Etoile, France). […] In Table 6 below, S, I, and R are the results obtained by evaluating susceptibility to the antibacterial agents, in which ‘S’ means susceptible, ‘I’ means intermediate, and ‘R’ means resistant.
# Strain identification was performed using a kit such as ATB 32 GN system (bioMérieux, Marcy l'Etoile, France). […] In Table 10 below, S, I, and R are the results obtained by evaluating susceptibility to the antibacterial agents, in which ‘S’ means susceptible, T means intermediate, and ‘R’ means resistant.
smiles,measurement,setting,value
"CN(C)c1ccc(O)c2c1C[C@H]1C[C@H]3[C@H](N(C)C)C(O)=C(C(N)=O)C(=O)[C@@]3(O)C(O)=C1C2=O [Minocycline, minocycline]",antibiotic susceptibility class,host strain YMC14/01/C29,S
same,antibiotic susceptibility class,host strain YMC14/01/IP122,S
same,antibiotic susceptibility class,host strain YMC14/01/L8,S
same,antibiotic susceptibility class,host strain YMC14/01/P31,S
same,antibiotic susceptibility class,host strain YMC14/01/P117,S
same,antibiotic susceptibility class,host strain YMC14/01/P224,S
same,antibiotic susceptibility class,host strain YMC14/01/P727,S
same,antibiotic susceptibility class,host strain YMC14/01/P728,S
same,antibiotic susceptibility class,host strain YMC14/01/R130,S
same,antibiotic susceptibility class,host strain YMC14/01/R160,I
same,antibiotic susceptibility class,host strain YMC14/01/R198,I
same,antibiotic susceptibility class,host strain YMC14/01/R257,I
same,antibiotic susceptibility class,host strain YMC14/01/R270,S
same,antibiotic susceptibility class,host strain YMC14/01/R324,S
same,antibiotic susceptibility class,host strain YMC14/01/R443,I
same,antibiotic susceptibility class,host strain YMC14/01/R451,R
same,antibiotic susceptibility class,host strain YMC14/01/R560,R
same,antibiotic susceptibility class,host strain YMC14/01/R617,R
same,antibiotic susceptibility class,host strain YMC14/01/R671,I
same,antibiotic susceptibility class,host strain YMC14/01/R732,S
same,antibiotic susceptibility class,host strain YMC14/01/R767,S
same,antibiotic susceptibility class,host strain YMC14/01/R904,I
same,antibiotic susceptibility class,host strain YMC14/01/R905,I
same,antibiotic susceptibility class,host strain YMC14/01/R921,S
same,antibiotic susceptibility class,host strain YMC14/01/R941,S
same,antibiotic susceptibility class,host strain YMC14/01/R958,S
same,antibiotic susceptibility class,host strain YMC14/01/R1006,S
same,antibiotic susceptibility class,host strain YMC14/01/R1199,S
same,antibiotic susceptibility class,host strain YMC14/01/R1659,S
same,antibiotic susceptibility class,host strain YMC14/01/R1722,S
same,antibiotic susceptibility class,host strain YMC14/01/R1752,S
same,antibiotic susceptibility class,host strain YMC14/01/R2429,S
same,antibiotic susceptibility class,host strain YMC14/01/R2572,S
same,antibiotic susceptibility class,host strain YMC14/01/R2855,S
same,antibiotic susceptibility class,host strain YMC14/01/R2945,S
same,antibiotic susceptibility class,host strain YMC14/01/R3007,S
same,antibiotic susceptibility class,host strain YMC14/01/R3129,S
same,antibiotic susceptibility class,host strain YMC14/01/R3317,S
same,antibiotic susceptibility class,host strain YMC14/01/R3474,S
same,antibiotic susceptibility class,host strain YMC14/01/R3574,S
same,antibiotic susceptibility class,host strain YMC14/01/U313,S
same,antibiotic susceptibility class,host strain YMC14/01/U318,I
same,antibiotic susceptibility class,host strain YMC14/02/L18,S
same,antibiotic susceptibility class,host strain YMC14/02/P47,S
same,antibiotic susceptibility class,host strain YMC14/02/R1860,S
same,antibiotic susceptibility class,host strain YMC14/02/R2417,S
same,antibiotic susceptibility class,host strain YMC14/02/R2599,S
same,antibiotic susceptibility class,host strain YMC14/02/R2668,S
same,antibiotic susceptibility class,host strain YMC14/02/R2758,S
same,antibiotic susceptibility class,host strain YMC14/02/R2781,S
same,antibiotic susceptibility class,host strain YMC14/02/R3106,S
same,antibiotic susceptibility class,host strain YMC14/02/R3419,S
same,antibiotic susceptibility class,host strain YMC14/02/U1607,S
same,antibiotic susceptibility class,host strain YMC14/03/L9,S
same,antibiotic susceptibility class,host strain YMC14/03/P471,S
same,antibiotic susceptibility class,host strain YMC14/03/R122,S
same,antibiotic susceptibility class,host strain YMC14/03/R217,S
same,antibiotic susceptibility class,host strain YMC14/03/R380,S
same,antibiotic susceptibility class,host strain YMC14/03/R618,S
same,antibiotic susceptibility class,host strain YMC14/03/R2144,S
same,antibiotic susceptibility class,host strain YMC14/03/U4616,S
same,antibiotic susceptibility class,host strain YMC14/04/R1078,S
same,antibiotic susceptibility class,host strain YMC14/04/R1080,S
same,antibiotic susceptibility S/I/R,host strain YMC14/06/R2359,S
same,susceptibility category (S/I/R),host strain YMC14/06/R2359,S
same,antibiotic susceptibility S/I/R,host strain YMC14/08/R1169,S
same,susceptibility category (S/I/R),host strain YMC14/08/R1169,S
same,antibiotic susceptibility S/I/R,host strain YMC14/08/T90,S
same,susceptibility category (S/I/R),host strain YMC14/08/T90,S
same,antibiotic susceptibility S/I/R,host strain YMC15/02/R436,R
same,susceptibility category (S/I/R),host strain YMC15/02/R436,R
same,antibiotic susceptibility S/I/R,host strain YMC15/02/T28,S
same,susceptibility category (S/I/R),host strain YMC15/02/T28,S
same,antibiotic susceptibility S/I/R,host strain YMC15/03/R1604,S
same,susceptibility category (S/I/R),host strain YMC15/03/R1604,S
same,antibiotic susceptibility S/I/R,host strain YMC15/09/R1869,S
same,susceptibility category (S/I/R),host strain YMC15/09/R1869,S
same,antibiotic susceptibility S/I/R,host strain YMC16/01/P11,S
same,susceptibility category (S/I/R),host strain YMC16/01/P11,S
same,antibiotic susceptibility S/I/R,host strain YMC16/01/R123,S
same,susceptibility category (S/I/R),host strain YMC16/01/R123,S
same,antibiotic susceptibility S/I/R,host strain YMC16/01/R198,S
same,susceptibility category (S/I/R),host strain YMC16/01/R198,S
same,antibiotic susceptibility S/I/R,host strain YMC16/01/R353,S
same,susceptibility category (S/I/R),host strain YMC16/01/R353,S
same,antibiotic susceptibility S/I/R,host strain YMC16/01/R380,S
same,susceptibility category (S/I/R),host strain YMC16/01/R380,S
same,antibiotic susceptibility S/I/R,host strain YMC16/01/R397,S
same,susceptibility category (S/I/R),host strain YMC16/01/R397,S
same,antibiotic susceptibility S/I/R,host strain YMC16/01/R405,S
same,susceptibility category (S/I/R),host strain YMC16/01/R405,S
same,antibiotic susceptibility S/I/R,host strain YMC16/03/R4461,S
same,susceptibility category (S/I/R),host strain YMC16/03/R4461,S
same,antibiotic susceptibility S/I/R,host strain YMC16/05/R2210,S
same,susceptibility category (S/I/R),host strain YMC16/05/R2210,S
same,antibiotic susceptibility S/I/R,host strain YMC16/07/R2512,S
same,susceptibility category (S/I/R),host strain YMC16/07/R2512,S
same,antibiotic susceptibility S/I/R,host strain YMC16/09/R2471,S
same,susceptibility category (S/I/R),host strain YMC16/09/R2471,S
same,antibiotic susceptibility S/I/R,host strain YMC16/10/R2537,S
same,susceptibility category (S/I/R),host strain YMC16/10/R2537,S
same,antibiotic susceptibility S/I/R,host strain YMC16/12/B11422,S
same,susceptibility category (S/I/R),host strain YMC16/12/B11422,S
same,antibiotic susceptibility S/I/R,host strain YMC16/12/B11449,S
same,susceptibility category (S/I/R),host strain YMC16/12/B11449,S
same,antibiotic susceptibility S/I/R,host strain YMC16/12/B13325,S
same,susceptibility category (S/I/R),host strain YMC16/12/B13325,S
same,antibiotic susceptibility S/I/R,host strain YMC16/12/P503,R
same,susceptibility category (S/I/R),host strain YMC16/12/P503,R
same,antibiotic susceptibility S/I/R,host strain YMC16/12/R4637,R
same,susceptibility category (S/I/R),host strain YMC16/12/R4637,R
same,antibiotic susceptibility S/I/R,host strain YMC17/01/B8053,S
same,susceptibility category (S/I/R),host strain YMC17/01/B8053,S
same,antibiotic susceptibility S/I/R,host strain YMC17/01/B10087,S
same,susceptibility category (S/I/R),host strain YMC17/01/B10087,S
same,antibiotic susceptibility S/I/R,host strain YMC17/01/B12075,S
same,susceptibility category (S/I/R),host strain YMC17/01/B12075,S
same,antibiotic susceptibility S/I/R,host strain YMC17/01/B13454,S
same,susceptibility category (S/I/R),host strain YMC17/01/B13454,S
same,antibiotic susceptibility S/I/R,host strain YMC17/01/P518,S
same,susceptibility category (S/I/R),host strain YMC17/01/P518,S
same,antibiotic susceptibility S/I/R,host strain YMC17/01/R2812,R
same,susceptibility category (S/I/R),host strain YMC17/01/R2812,R
same,susceptibility category (S/I/R),host strain YMC17/02/B14,I
same,susceptibility category (S/I/R),host strain YMC17/02/B87,I
same,antibiotic susceptibility S/I/R,host strain YMC17/02/B721,S
same,susceptibility category (S/I/R),host strain YMC17/02/B721,S
same,antibiotic susceptibility S/I/R,host strain YMC17/02/B4039,S
same,susceptibility category (S/I/R),host strain YMC17/02/B4039,S
same,antibiotic susceptibility S/I/R,host strain YMC17/02/B4520,S
same,susceptibility category (S/I/R),host strain YMC17/02/B4520,S
same,antibiotic susceptibility S/I/R,host strain YMC17/02/B4864,S
same,susceptibility category (S/I/R),host strain YMC17/02/B4864,S
same,antibiotic susceptibility S/I/R,host strain YMC17/02/B8414,S
same,susceptibility category (S/I/R),host strain YMC17/02/B8414,S
same,antibiotic susceptibility S/I/R,host strain YMC17/02/P523,S
same,susceptibility category (S/I/R),host strain YMC17/02/P523,S
same,antibiotic susceptibility S/I/R,host strain YMC17/02/R541,R
same,susceptibility category (S/I/R),host strain YMC17/02/R541,R
same,antibiotic susceptibility S/I/R,host strain YMC17/02/R2392,S
same,susceptibility category (S/I/R),host strain YMC17/02/R2392,S
same,antibiotic susceptibility S/I/R,host strain YMC17/03/B4730,S
same,susceptibility category (S/I/R),host strain YMC17/03/B4730,S
same,susceptibility category (S/I/R),host strain YMC17/03/B5000,I
same,antibiotic susceptibility S/I/R,host strain YMC17/03/P971,S
same,susceptibility category (S/I/R),host strain YMC17/03/P971,S
same,antibiotic susceptibility S/I/R,host strain YMC17/03/R348,S
same,susceptibility category (S/I/R),host strain YMC17/03/R348,S
same,antibiotic susceptibility S/I/R,host strain YMC17/03/R585,R
same,susceptibility category (S/I/R),host strain YMC17/03/R585,R
same,antibiotic susceptibility S/I/R,host strain YMC17/03/R1888,S
same,susceptibility category (S/I/R),host strain YMC17/03/R1888,S
same,antibiotic susceptibility S/I/R,host strain YMC17/03/R3279,S
same,susceptibility category (S/I/R),host strain YMC17/03/R3279,S
same,antibiotic susceptibility S/I/R,host strain YMC17/03/R4077,S
same,susceptibility category (S/I/R),host strain YMC17/03/R4077,S
same,antibiotic susceptibility S/I/R,host strain YMC17/03/R4607,R
same,susceptibility category (S/I/R),host strain YMC17/03/R4607,R
same,antibiotic susceptibility S/I/R,host strain YMC17/04/R488,S
same,susceptibility category (S/I/R),host strain YMC17/04/R488,S
same,antibiotic susceptibility S/I/R,host strain YMC17/04/R640,S
same,susceptibility category (S/I/R),host strain YMC17/04/R640,S
same,antibiotic susceptibility S/I/R,host strain YMC/17/05/R1095,S
same,susceptibility category (S/I/R),host strain YMC/17/05/R1095,S
